Assay results: PMC3781220 (The Journal of organic chemistry, 2010)
Where two headings read alike, the source gives them in different places.

Assays:
[1] = target: T1, recombinant yeast squalene synthase (Saccharomyces cerevisiae, UniProt P29704); assay type: biochemical; conditions: for potency ratio of 2R,3S enantiomer over 2S,3R enantiomer, absence of PPi: no added PPi
T1 sequence (P29704 1-420 limits assumed): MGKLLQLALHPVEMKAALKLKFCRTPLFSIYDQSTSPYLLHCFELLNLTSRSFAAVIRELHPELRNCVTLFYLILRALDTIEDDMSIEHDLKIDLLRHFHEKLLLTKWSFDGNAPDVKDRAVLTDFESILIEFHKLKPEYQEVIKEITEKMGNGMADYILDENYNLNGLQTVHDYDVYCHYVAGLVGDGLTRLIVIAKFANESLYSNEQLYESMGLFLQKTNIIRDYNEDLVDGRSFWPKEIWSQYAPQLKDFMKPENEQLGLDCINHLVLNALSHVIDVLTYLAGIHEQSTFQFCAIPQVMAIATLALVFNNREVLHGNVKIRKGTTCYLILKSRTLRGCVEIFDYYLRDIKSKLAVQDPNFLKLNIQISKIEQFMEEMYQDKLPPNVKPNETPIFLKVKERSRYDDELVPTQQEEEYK

[2] = target: T1, recombinant yeast squalene synthase; conditions: cited from earlier work

CC(C)=CCC/C(C)=C/CCCCN1[C@H](COP(=O)([O-])OP(=O)([O-])[O-])[C@@]1(C)CC/C=C(\C)CCC=C(C)C.CCCC[N+](CCCC)(CCCC)CCCC.CCCC[N+](CCCC)(CCCC)CCCC.CCCC[N+](CCCC)(CCCC)CCCC (relative stereo) [(2R,3S)-6-OPP, (2R,3S)-trans-[2-((E)-4,8-Dimethyl-3,7-nonadienyl)-1-((E)-6, 10-dimethyl-5,9-undecadienyl)-2-methylaziridin-3-yl]methyl Diphosphate, Tris (tetrabutylammonium) Salt]
potency ratio of 2R,3S enantiomer over 2S,3R enantiomer, presence of PPi ([1]; 1.5 mM PPi): 4 fold | synergistic effect of the PPi additive on inhibition ([1]; IC50 −PPi versus +PPi): almost no change | potency ratio of 2R,3S enantiomer over 2S,3R enantiomer, absence of PPi [1]: about 16 fold | potency ratio of 2R,3S enantiomer over 2S,3R enantiomer, absence of PPi ([1]; listed as 2R,3S enantiomer): 16 fold | IC50 ([1]; read-out: IC50, +PPi, 1.5 mM PPi added, pH 7.2, 100 μM [3H]FPP, ± standard error): 1.17 ± 0.08 µM

CC(C)=CCC/C(C)=C/CC/C(C)=C/C1C(COP(=O)(O)OP(=O)(O)O)C1(C)CC/C=C(\C)CCC=C(C)C (stereo in doubt) [PSPP, presqualene diphosphate]
Ki ([2]; read-out: Ki PSPP, affinity of intermediate for the enzyme): 75 ± 20 µM

CC(C)=CCC/C(C)=C/CC/C(C)=C/COP(=O)(O)OP(=O)(O)O [FPP, (E,E)-farnesyl diphosphate, reference compound]
Km ([1]; read-out: Km for FPP, substrate constant given with the Ki experiment): 20 µM | S0.5 FPP ([2]; affinity of substrate for the enzyme): 19 ± 6 µM
